# Reference: patent publication US20130005568A1, “SAFENED HERBICIDAL MIXTURES” (E.I. DU PONT DE NEMOURS AND COMPANY, priority 2011, published 2013)
# Tests used:
# palisade grass = assay: Test K: pasture grass postemergence plant response rating, field conditions; format: in vivo, Brachiaria brizantha (Hochst. ex A. Rich) Stapf; conditions: Palisade grass, postemergence, field, four weeks, 0-100 scale
# Text: (§1) For all of the following biological tests, plant response ratings were based on a 0-100 scale where zero is growth equivalent to that of untreated plants (no plant response) and 100 represents no additional growth occurring after herbicide treatment.
# (§2) Herbicide mixtures were formulated, dissolved/dispersed in water containing 0.25% non-ionic surfactant, and sprayed postemergence to the pasture grasses: Surinam grass (Brachiaria decumbens Stapf), palisade grass (Brachiaria brizantha (Hochst. ex A. Rich) Stapf) and Alexandergrass (Brachiaria plantaginea (Link) A. S. Hitchc.) approximately 10-30 cm tall (extended leaf height). This test was conducted under field conditions. Visual evaluations of plant responses were recorded four weeks after the plants were treated.
# sugarcane = assay: Test J: sugarcane postemergence plant response rating, field conditions; format: in vivo, Saccharum officinarum L.; conditions: postemergence, field, four weeks, 0-100 scale
# Experimental: as §1
# Herbicide mixtures were formulated, dissolved/dispersed in water containing 0.25% non-ionic surfactant, and sprayed postemergence to sugarcane (Saccharum officinarum L.) approximately 20-40 cm tall (extended leaf height). This test was conducted under field conditions. Visual evaluations of plant responses were recorded four weeks after the plants were treated.
# Alexandergrass = assay: Test K: pasture grass postemergence plant response rating, field conditions; format: in vivo, Brachiaria plantaginea (Link) A. S. Hitchc.; conditions: Alexandergrass, postemergence, field, four weeks, 0-100 scale
# Text: as §1, §2
# [1] = system: sunflower variety Pioneer 63N82 bred for resistance to tribenuron-methyl; assay: Test H: tribenuron-tolerant sunflower postemergence plant response rating; format: in vivo, Helianthus annuus L. var. Pioneer 63N82; conditions: 2-leaf stage, greenhouse, two weeks, 0-100 scale
# Text: as §1
# Herbicide mixtures were formulated, dissolved/dispersed in water containing 0.25% non-ionic surfactant, and sprayed postemergence at the 2-leaf growth stage to a sunflower variety (Helianthus annuus L. var. Pioneer 63N82) bred for resistance to tribenuron-methyl. Treated plants were grown under greenhouse conditions for two weeks before visual evaluations of plant responses were recorded.
# [2] = system: Pioneer 39K40 hybrid maize; assay: Test C: visual plant response rating, postemergence acetohydroxy acid synthase-inhibiting herbicides alone and with Compound 1; format: in vivo, Zea mays L. spp. indentata Sturt.; conditions: greenhouse, two weeks, 0-100 scale
# Experimental: as §1
# Herbicide mixtures were dissolved/dispersed in a non-phytotoxic liquid carrier and were sprayed postemergence to Pioneer 39K40 hybrid maize (Zea mays L. spp. indentata Sturt.) in the third collar growth stage (extended leaf height was 40-60 cm). Treated plants were grown under greenhouse conditions for two weeks before visual evaluations of plant responses were recorded.
# Surinam grass = assay: Test K: pasture grass postemergence plant response rating, field conditions; format: in vivo, Brachiaria decumbens Stapf; conditions: Surinam grass, postemergence, field, four weeks, 0-100 scale
# Text: as §1, §2
# [3] = system: Pioneer 39K40 hybrid maize; assay: Test B: visual plant response rating, postemergence herbicides with Compound 1 rate series; format: in vivo, Zea mays L. spp. indentata Sturt.; conditions: in vivo
# Experimental: as §1
# Herbicide mixtures were dissolved/dispersed in a non-phytotoxic liquid carrier and were sprayed postemergence to Pioneer 39K40 hybrid maize (Zea mays L. spp. indentata Sturt.) in the third collar growth stage (extended leaf height was 50-60 cm). Treated plants were grown under greenhouse conditions for two weeks before visual evaluations of plant responses were recorded.
# [4] = system: Pioneer 39K40 hybrid maize; assay: Test A: visual plant response rating, postemergence herbicide treatments alone and with Compound 1; format: in vivo, Zea mays L. spp. indentata Sturt.; conditions: in vivo
# Experimental: as §1
# Pioneer 39K40 hybrid maize used in this test (and also Tests B and C) is particularly sensitive to herbicides that inhibit the acetohydroxy acid synthase enzyme. Herbicide mixtures were dissolved/dispersed in a non-phytotoxic liquid carrier and were sprayed postemergence to Pioneer 39K40 hybrid maize (Zea mays L. spp. indentata Sturt.) in the third collar growth stage (extended leaf height was 50-60 cm). Treated plants were grown under greenhouse conditions for two weeks before visual evaluations of plant responses were recorded.
# lambsquarters = assay: Test I: postemergence plant response rating; format: in vivo, Chenopodium album L.; conditions: lambsquarters, postemergence, greenhouse, two weeks, 0-100 scale
# Text: as §1
# (§3) Herbicide mixtures were formulated, dissolved/dispersed in water containing 0.25% non-ionic surfactant, and sprayed postemergence to the crop: soybean (Glycine max (L.) Merr.) at the 2-leaf growth stage and to weeds: lambsquarters (Chenopodium album L.) and velvetleaf (Abutilon theophrasti Medik.). Weed species were 5-10 cm tall when treated. Treated plants were grown under greenhouse conditions for two weeks before visual evaluations of plant responses were recorded.
# velvetleaf = assay: Test I: postemergence plant response rating; format: in vivo, Abutilon theophrasti Medik.; conditions: velvetleaf, postemergence, greenhouse, two weeks, 0-100 scale
# Text: as §1, §3
# [5] = herbicide 30 g ai/ha + Compound 1 70 g ai/ha
# [6] = herbicide 30 g ai/ha + Compound 1 140 g ai/ha
# [7] = herbicide 4 g ai/ha + Compound 1 125 g ai/ha
# [8] = herbicide 8 g ai/ha + Compound 1 125 g ai/ha
smiles,measurement,setting,value
"COC(=O)c1ccccc1S(=O)(=O)NC(=O)Nc1nc(C)cc(C)n1 [Sulfometuron-methyl, sulfometuron-methyl]","Observed Response, Herbicide mixture with Compound 1",palisade grass; [5],40
same,"Observed Response, Herbicide mixture with Compound 1",palisade grass; [6],20
same,"Observed Response, Herbicide alone",palisade grass; herbicide 30 g ai/ha,45
same,"Observed Response, Herbicide mixture with Compound 1",sugarcane; [5],45
same,"Observed Response, Herbicide mixture with Compound 1",sugarcane; [6],30
same,"Observed Response, Herbicide alone",sugarcane; herbicide 30 g ai/ha,60
same,"Observed Response, Herbicide mixture with Compound 1",Alexandergrass; [5],45
same,"Observed Response, Herbicide mixture with Compound 1",Alexandergrass; [6],30
same,"Observed Response, Herbicide alone",Alexandergrass; herbicide 30 g ai/ha,50
same,"Observed Response, Herbicide mixture with Compound 1",[1]; [7],7
same,"Observed Response, Herbicide alone",[1]; herbicide 4 g ai/ha,27
same,"Observed Response, Herbicide mixture with Compound 1",[1]; [8],3
same,"Observed Response, Herbicide alone",[1]; herbicide 8 g ai/ha,30
same,"Observed Response, Herbicide mixture with Compound 1",[1]; herbicide 16 g ai/ha + Compound 1 125 g ai/ha,3
same,"Observed Response, Herbicide alone",[1]; herbicide 16 g ai/ha,33
same,"Observed Response, Herbicide mixture with Compound 1",[1]; herbicide 31 g ai/ha + Compound 1 125 g ai/ha,7
same,"Observed Response, Herbicide alone",[1]; herbicide 31 g ai/ha,37
same,"Observed Response, Herbicide mixture with Compound 1",[1]; herbicide 62 g ai/ha + Compound 1 125 g ai/ha,7
same,"Observed Response, Herbicide alone",[1]; herbicide 62 g ai/ha,40
same,"Observed Response, Herbicide mixture with Compound 1",[2]; [8],100
same,"Observed Response, Herbicide alone",[2]; herbicide 8 g ai/ha,100
same,"Observed Response, Herbicide mixture with Compound 1",Surinam grass; [5],45
same,"Observed Response, Herbicide mixture with Compound 1",Surinam grass; [6],30
same,"Observed Response, Herbicide alone",Surinam grass; herbicide 30 g ai/ha,50
"CCS(=O)(=O)c1cccnc1S(=O)(=O)NC(=O)Nc1nc(OC)cc(OC)n1 [Rimsulfuron, rimsulfuron]","Observed Response, Herbicide alone",[3],62
same,"Observed Response, Herbicide alone",[4],92
"COC(=O)c1sccc1S(=O)(=O)NC(=O)Nc1nc(C)nc(OC)n1 [Thifensulfuron-methyl, thifensulfuron-methyl]","Observed Response, Herbicide mixture with Compound 1",lambsquarters; [7],99
same,"Observed Response, Herbicide alone",lambsquarters; herbicide 4 g ai/ha,98
same,"Observed Response, Herbicide mixture with Compound 1",lambsquarters; [8],100
same,"Observed Response, Herbicide alone",lambsquarters; herbicide 8 g ai/ha,100
same,"Observed Response, Herbicide alone",[3],45
same,"Observed Response, Herbicide alone",[4],73
same,"Observed Response, Herbicide mixture with Compound 1",velvetleaf; [7],99
same,"Observed Response, Herbicide alone",velvetleaf; herbicide 4 g ai/ha,99
same,"Observed Response, Herbicide mixture with Compound 1",velvetleaf; [8],100
same,"Observed Response, Herbicide alone",velvetleaf; herbicide 8 g ai/ha,100
